Columns and labels:
Assay in all cases: relative viability (nuclei count vs DMSO), 5 days (fraction); higher = more cells survive
[1] = compound: C[C@]1(O)C[C@@H](c2nc(-c3ccc4ccc(-c5ccccc5)nc4c3)c3c(N)nccn32)C1 [Linsitinib] + COc1cc2c(Oc3ccc(NC(=O)C4(C(=O)Nc5ccc(F)cc5)CC4)cc3F)ccnc2cc1OCCCN1CCOCC1 [Foretinib] (partner 0.25 µM)
How it was run: (§1)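 A single step with final 0.05% Triton X-100, 1% formaldehyde and 1 ug/ml Hoechst fixed the cells and stained nuclei 5 days after treatment. Lung cancer cell lines in 1536-well plates had been treated by pin tool the day after seeding with one drug alone or a fixed anchor-drug dose plus five library-drug doses (not always all listed) in √10 steps, and nuclei were counted on 4× images. Relative viability is the ratio of nuclei in treated wells to nuclei in vehicle wells, taken as the median of duplicate plates.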

[2] = compound: C[C@]1(O)C[C@@H](c2nc(-c3ccc4ccc(-c5ccccc5)nc4c3)c3c(N)nccn32)C1 [Linsitinib] + NC(=O)Nc1cc(-c2cccc(F)c2)sc1C(=O)N[C@H]1CCCNC1 [AZD7762] (partner 0.2 µM)
How it was run: as §1

[3] = compound: Cc1ccc(C(=O)N(CCCN)[C@@H](c2nc3cc(Cl)ccc3c(=O)n2Cc2ccccc2)C(C)C)cc1 [Ispinesib] + N=C(N)NC(=N)NCCc1ccccc1 [Phenformin] (partner 250 µM)
How it was run: as §1

| Cell Line | relative viability ([1]; first compound 0.01 µM) | relative viability ([1]; first compound 0.03162 µM) | relative viability ([1]; first compound 0.1 µM) | relative viability ([1]; first compound 0.3162 µM) | relative viability ([1]; first compound 1 µM) | relative viability ([2]; first compound 0.03162 µM) | relative viability ([2]; first compound 0.1 µM) | relative viability ([2]; first compound 0.3162 µM) | relative viability ([2]; first compound 1 µM) | relative viability ([3]; first compound 0.001 µM) | relative viability ([3]; first compound 0.003162 µM) | relative viability ([3]; first compound 0.01 µM) | relative viability ([3]; first compound 0.03162 µM) | relative viability ([3]; first compound 0.1 µM) | relative viability ([2]; first compound 0.01 µM) |
| --- | --- | --- | --- | --- | --- | --- | --- | --- | --- | --- | --- | --- | --- | --- | --- |
| EKVX | 0.988 | 0.358 | 0.779 | 0.252 | 0.686 | 0.662 | 0.717 | 0.707 | 0.631 | 0.24 | 0.244 | 0.243 | 0.238 | 0.152 |  |
| EMC-BAC-2 | 0.95 | 0.979 | 1.1 | 0.907 | 0.819 | 1.07 | 1.1 | 0.775 | 0.553 | 0.557 | 0.545 | 0.534 | 0.372 | 0.209 | 1.12 |
| EPLC-272H | 0.72 | 0.693 |  |  | 0.656 | 0.22 | 0.221 |  | 0.334 | 0.317 | 0.283 | 0.262 | 0.217 | 0.145 | 0.186 |
| H3255 | 0.796 | 0.907 | 0.944 | 0.682 | 0.976 | 0.884 | 0.813 | 0.69 | 0.806 | 0.347 | 0.37 | 0.333 | 0.259 | 0.259 | 0.7 |
| HARA | 0.91 | 0.938 | 0.758 |  | 0.932 | 0.237 | 0.344 |  | 0.179 | 0.492 | 0.509 | 0.614 | 0.343 | 0.113 | 0.355 |
| HCC-15 | 1.08 | 1.01 | 1.04 |  | 0.809 | 1.15 | 1.16 | 0.839 | 1.11 | 0.567 | 0.48 | 0.487 | 0.19 | 0.184 | 1.07 |

From the supplement of paper PMC10307832
